In patent publication US11020405B2, “Method for prevention or treatment of diabetic complications” (KANGWON NATIONAL UNIVERSITY UNIVERSITY-INDUSTRY COOPERATION …, priority 2017, dated 2021):

Legend:
TGase = assay: Identification of receptor of midazolam through TGase activity analysis; type: cell-based, human; conditions: HRECs, 0-50 μM flumazenil or 0-30 μM PK11195 1 hr, then 20 μM midazolam 30 min, then 10 ng/ml VEGF (FIG. 11B)
Procedure: With reference to FIG. 11A, the HRECs of Test Example 1 were subjected to the respective treatments below, cultured for 2 hr, treated with 1 mM 5-(biotinamido)pentylamine, incubated for 1 hr, fixed with 3.7% formaldehyde, treated with 0.2% triton X-100, treated with a blocking solution containing 138 mM NaCl, 0.1% Tween 20 and 2% BSA dissolved in a 20 mM Tris (pH 7.6) buffer, incubated for 30 min, incubated with FITC-conjugated streptavidin (1:200, v/v) for 1 hr, and then measured using confocal microscopy to thus determine the fluorescence intensity of single cells.
(§1) As will be described below, flumazenil was used as a GABAA receptor antagonist and PK11195 was used as a TSOP receptor antagonist.
With reference to FIG. 11B, the HRECs of Test Example 1 were treated with 0 μM, 0.01 μM, 0.1 μM, 1 μM, 10 μM, 20 μM, and 50 μM flumazenil and 0 μM, 0.01 μM, 0.1 μM, 1 μM, 3 μM, 10 μM, and 30 μM PK11195, cultured for 1 hr, treated with 20 μM midazolam, cultured for 30 min, treated with 10 ng/ml VEGF, incubated for 10 min, treated with 1 mM 5-(biotinamido)pentylamine, incubated for 1 hr, fixed with 3.7% formaldehyde, treated with 0.2% triton X-100, treated with a blocking solution containing 138 mM NaCl, 0.1% Tween 20 and 2% BSA dissolved in a 20 mM Tris (pH 7.6) buffer, incubated for 30 min, incubated with FITC-conjugated streptavidin (1:200, v/v) for 1 hr, and then measured using confocal microscopy to thus determine the fluorescence intensity of single cells.

[1] = test system: human retinal endothelial cells (HRECs); assay: Identification of receptor of midazolam through ROS concentration analysis; type: cell-based; conditions: 0-50 μM flumazenil or 0-30 μM PK11195 1 hr, then 20 μM midazolam 30 min, then 10 ng/ml VEGF (FIG. 10B)
Procedure: With reference to FIG. 10A, the HRECs of Test Example 1 were subjected to the respective treatments below, cultured for 10 min, treated with 10 μM H2DCFDA, stained for 10 min in a phenol-red-free low-serum medium, and measured using confocal microscopy to thus determine the fluorescence intensity of single cells.
as §1
With reference to FIG. 10B, the HRECs of Test Example 1 were treated with 0 μM, 0.01 μM, 0.1 μM, 1 μM, 10 μM, 20 μM, and 50 μM flumazenil and 0 μM, 0.01 μM, 0.1 μM, 1 μM, 3 μM, 10 μM, and 30 μM PK11195, cultured for 1 hr, treated with 20 μM midazolam, cultured for 30 min, treated with 10 ng/ml VEGF, incubated for 10 min, treated with 10 μM H2DCFDA, stained for 10 min in a phenol-red-free low-serum medium, and then measured using confocal microscopy to thus determine the fluorescence intensity of single cells.

[2] = test system: human retinal endothelial cells (HRECs); assay: Analysis of intracellular Ca^2+ (Fluo4-AM, confocal microscopy); type: cell-based; conditions: 10 ng/mL VEGF with 5 μM BAPTA-AM, 1 mM NAC, 0.5 μM Trolox, 50 μM cystamine or 20 μM MDC, 30 min (FIG. 2B)
Procedure: (§2) Purchased from Applied Cell Biology Research Institute (Cell Systems, Kirkland, Wash.), human retinal endothelial cells (HRECs) were cultured in an M19 medium, containing 20% FBS, 3 ng/mL bFGF, 5 U/mL heparin, 100 U/mL penicillin and […], in a 2% gelatin-coated plate.
(§3) Before the following Test Examples 2 to 7, the HRECs were cultured for 6 hr in a medium containing 1% FBS and an antibiotic agent, thus preparing HRECs of Test Example 1.
With reference to FIG. 2A, the HRECs of Test Example 1 were subjected to the respective treatments below, stained with 2 μM Fluo4-AM at 37° C. for 30 min and then measured at time intervals of 10 sec using confocal microscopy (FV-300, Olympus, Tokyo, Japan).
With reference to FIG. 2B, the HRECs of Test Example 1 were subjected to the respective treatments below, cultured for 30 min, stained with 2 μM Fluo4-AM at 37° C. for 30 min and then measured at time intervals of 10 sec using confocal microscopy.

[3] = test system: human retinal endothelial cells (HRECs); assay: Analysis of ROS of cells (H2DCFDA fluorescence); type: cell-based; conditions: 10 ng/mL VEGF with 20 μM midazolam, 5 μM BAPTA-AM, 1 mM NAC, 0.5 μM Trolox, 50 μM cystamine or 20 μM MDC (FIG. 3B)
Procedure: as §2, §3
With reference to FIG. 3A, the HRECs of Test Example 1 were treated with 0 to 20 μM midazolam, cultured for 30 min, treated with 10 ng/mL VEGF and 10 μM H2DCFDA (Molecular Probes, Eugene, Oreg.), stained for 10 min in a phenol-red-free low-serum medium, and then measured using confocal microscopy to thus determine the fluorescence intensity of single cells.
With reference to FIG. 3B, the HRECs of Test Example 1 were subjected to the respective treatments below and cultured for 30 min. Upon treatment with 10 ng/mL VEGF, treatment with 10 μM H2DCFDA was performed therewith, or alternatively, treatment with 10 μM H2DCFDA was performed alone, followed by staining for 10 min in a phenol-red-free low-serum medium and then measurement via confocal microscopy to thus determine the fluorescence intensity of single cells.

[4] = test system: endothelial monolayer of HRECs; assay: Analysis of cell permeability (FITC-dextran, Transwell); type: cell-based, human; conditions: HREC monolayer, 10 ng/mL VEGF 90 min with 20 μM midazolam, 5 μM BAPTA-AM, 1 mM NAC, 0.5 μM Trolox, 50 μM cystamine or 20 μM MDC; 40 kDa FITC-dextran 60 min (FIG. 7)
Procedure: The HRECs were cultured (e.g. about 5 days) until the cell confluence thereof reached an appropriate level on gelatin-coated 0.4 μm polycarbonate membranes of Transwell Permeable Supports (Costar, Corning, N.Y.), followed by the respective treatments below and culture for 30 min. Here, treatment with 10 ng/mL VEGF was performed for 90 min. Thereafter, the HRECs were treated with 1 mg/mL 40 kDa FITC-dextran (Sigma-Aldrich), incubated for 60 min, after which the amount of FITC-dextran that was diffused into the lower chamber through the endothelial monolayer of HERCs was measured using a microplate spectrofluorometer (Molecular Devices, Sunnyvale, Calif.).

VE-cadherin = assay: Analysis of adherens junction (VE-cadherin staining); type: cell-based, human; conditions: HRECs, 10 ng/mL VEGF 90 min with 20 μM midazolam, 5 μM BAPTA-AM, 1 mM NAC, 0.5 μM Trolox, 50 μM cystamine or 20 μM MDC (FIGS. 5, 6)
Procedure: as §2, §3
The HRECs of Test Example 1 were subjected to the respective treatments below and cultured for 30 min. Here, treatment with 10 ng/mL VEGF was performed for 90 min. Thereafter, the HRECs were treated with 1 mM 5-(biotinamido)pentylamine, incubated for 1 hr, fixed with 3.7% formaldehyde, treated with 0.2% triton X-100, treated with a blocking solution containing 138 mM NaCl, 0.1% Tween 20 and 2% BSA dissolved in a 20 mM Tris (pH 7.6) buffer, incubated for 30 min, incubated with a monoclonal VE-cadherin antibody (1:200; Santa Cruz Biotechnology) for 12 hr or more (overnight), incubated with a FITC-conjugated goat anti-mouse antibody (1:200; Sigma-Aldrich), and then measured using confocal microscopy. Some (the following i), iii), iv), vi), ix)) of the results are shown in FIG. 5 and the VE-cadherin concentrations in the portions represented by the dotted lines in FIG. 5 are shown in FIG. 6. With reference to FIG. 6, 10 randomly selected cells were measured to determine the fluorescence intensity of single cells and thus quantify VE-cadherin.
VE-cadherin, which is a protein that mediates adherens junction, was analyzed to evaluate adherens junction.

β-catenin = assay: Analysis of adherens junction (β-catenin staining); type: cell-based, human; conditions: HRECs, 10 ng/mL VEGF 90 min with 20 μM midazolam, 5 μM BAPTA-AM, 1 mM NAC, 0.5 μM Trolox, 50 μM cystamine or 20 μM MDC (FIGS. 8, 9)
Procedure: as §2, §3
The HRECs of Test Example 1 were subjected to the respective treatments below and cultured for 30 min. Here, treatment with 10 ng/mL VEGF was performed for 90 min. Thereafter, the HRECs were treated with 1 mM 5-(biotinamido)pentylamine, incubated for 1 hr, fixed with 3.7% formaldehyde, treated with 0.2% triton X-100, treated with a blocking solution containing 138 mM NaCl, 0.1% Tween 20 and 2% BSA dissolved in a 20 mM Tris (pH 7.6) buffer, incubated for 30 min, incubated with a monoclonal β-catenin antibody (1:200; Santa Cruz Biotechnology) for 12 hr or more, incubated with a FITC-conjugated goat anti-mouse antibody, and measured using confocal microscopy. Some (the following i), ii), iii), iv)) of the results are shown in FIG. 8, and the β-catenin concentrations in the portions represented by the dotted lines in FIG. 8 are shown in FIG. 9. With reference to FIG. 9, 10 randomly selected cells were measured to determine the fluorescence intensity of single cells and thus quantify β-catenin.
β-catenin, which is a protein that mediates adherens junction like VE-cadherin, was analyzed to evaluate adherens junction.

Compound	TGase activity in midazolam- and VEGF-treated cells after receptor antagonist (TGase)	ROS concentration in midazolam- and VEGF-treated cells after receptor antagonist [1]	changes in intracellular Ca^2+ (VEGF-induced) compared to control [2]	ROS concentration (VEGF-induced) compared to control [3]	FITC-dextran diffused into lower chamber (cell permeability) / adherens junction disruption due to VEGF [4]	VE-cadherin concentration / adherens junction disruption due to VEGF (VE-cadherin)	β-catenin concentration / adherens junction disruption due to VEGF (β-catenin)
CCC(C)N(C)C(=O)c1cc2ccccc2c(-c2ccccc2Cl)n1 (stereo not drawn) [PK11195]	no increase in TGase activity, regardless of the PK11195 concentration	no increase in ROS concentration, regardless of the PK11195 concentration					
CC(=O)OCOC(=O)CN(CC(=O)OCOC(C)=O)c1ccccc1OCCOc1ccccc1N(CC(=O)OCOC(C)=O)CC(=O)OCOC(C)=O [BAPTA-AM]			no significant changes in intracellular Ca^2+	no significant ROS concentration increase was observed	the effect of preventing the adherens junction disruption was also observed	the effect of preventing the adherens junction disruption was also observed	the effect of preventing the adherens junction disruption was also observed
CN(C)c1cccc2c(S(=O)(=O)NCCCCCN)cccc12 [MDC]			intracellular Ca^2+ elevation was caused	ROS concentration was increased	the effect of preventing the adherens junction disruption was also observed	the effect of preventing the adherens junction disruption was also observed	the effect of preventing the adherens junction disruption was also observed
CC(=O)N[C@@H](CS)C(=O)O [NAC]			intracellular Ca^2+ elevation was caused	no significant ROS concentration increase was observed	the effect of preventing the adherens junction disruption was also observed	the effect of preventing the adherens junction disruption was also observed	the effect of preventing the adherens junction disruption was also observed
NCCSSCCN [cystamine]			intracellular Ca^2+ elevation was caused	ROS concentration was increased	the effect of preventing the adherens junction disruption was also observed	the effect of preventing the adherens junction disruption was also observed	the effect of preventing the adherens junction disruption was also observed
Cc1c(C)c2c(c(C)c1O)CCC(C)(C(=O)O)O2 (stereo not drawn) [Trolox]			intracellular Ca^2+ elevation was caused	no significant ROS concentration increase was observed	the effect of preventing the adherens junction disruption was also observed	the effect of preventing the adherens junction disruption was also observed	the effect of preventing the adherens junction disruption was also observed
